One series has as its system erythrocytes. Put plainly: In vitro competition studies with zonisamide and topiramate in whole blood. In kind it is in vitro ADME, human. The following applies: not influenced by the addition of sultiame; data not shown. The method, then: In addition, competition studies were performed with two other antiepileptic agents known for their affinity for CA (zonisamide and topiramate), added at equimolar concentration to 20 mg/L of sultiame. Similar ranges of inhibition constants for CA II were reported in the literature for these three substances.13 Samples (1 mL) were drawn before and at 2, 4, 6, 8, 10, 15, 20, 30, 45, 60, and 120 min after addition of the competitor. Sultiame, zonisamide, and topiramate concentrations were then analyzed. All samples were centrifuged at 18 620 g for 1 minutes at 4°C. Plasma, erythrocyte, and urine fractions were stored separately at − 80°C prior to analysis for a maximum of 9 months. For analysis, plasma and hemolyzed erythrocytes samples were subjected to protein precipitation with MeOH containing the internal‐standard sultiame D4 and quantified with the previously described HPLC‐MS/MS method, using matrix‐matched calibration and quality controls. The sultiame concentrations determined in erythrocytes were corrected for the 10% interstitial plasma remnant in the erythrocyte fraction after centrifugation.14

Details of series [1]: method as in earlier work. The settings on record: main metabolite identified in urines ref 8; cited from earlier work.

Turning to `CC1(C)O[C@@H]2[C@@H](CO[C@@]3(COS(N)(=O)=O)OC(C)(C)O[C@@H]23)O1` [topiramate], the erythrocyte/plasma ratio in the series on erythrocytes is reported as around 1.
Take hydroxy‐sultiame: the activity of metabolite result in series [1] is “inactive”.

These data come from PMC6986439, “Sultiame pharmacokinetic profile in plasma and erythrocytes after single oral doses: A pilot study in healthy volunteers” (Pharmacology Research & Perspectives, 2020).
